# Reference: ChEMBL document CHEMBL3046146, “Mutations in the mitochondrial cytochrome b of Tetranychus urticae Koch (Acari: Tetranychidae) confer cross-resistance between bifenazate and acequinocyl” (2009)
# How the values were obtained:
# Assay type in all cases: functional
# Tetranychus urticae [1] = experiment: Toxicity against adult Tetranychus urticae BR-VL (two-spotted spider mite) in bean leaves assessed as mortality treated 24 hr after 2000 mg/L GST inhibitor, DEM application
# Tetranychus urticae [2] = experiment: Resistance ratio of LC50 for Tetranychus urticae MR-VL (two-spotted spider mite) to LC50 for Tetranychus urticae GSS
# Tetranychus urticae [3] = experiment: Synergism ratio of LC50 for adult Tetranychus urticae BR-VL (two-spotted spider mite) to LC50 for adult Tetranychus urticae BR-VL in presence of 2000 mg/L esterase inhibitor, DEF application
# Tetranychus urticae [4] = experiment: Toxicity against adult bifenazate-susceptible Tetranychus urticae LS-VL (two-spotted spider mite) in compound pretreated bean leaves assessed as mortality
# Tetranychus urticae [5] = experiment: Resistance ratio of LC50 for Tetranychus urticae (two-spotted spider mite) HOL4 harboring mitochondrial G126S Cytb mutation to LC50 for Tetranychus urticae GSS
# Tetranychus urticae [6] = experiment: Synergism ratio of LC50 for adult Tetranychus urticae BR-VL (two-spotted spider mite) to LC50 for adult Tetranychus urticae BR-VL in presence of 2000 mg/L GST inhibitor, DEM application
# Tetranychus urticae [7] = experiment: Toxicity against adult Tetranychus urticae BR-VL (two-spotted spider mite) in bean leaves assessed as mortality treated 24 hr after 2000 mg/L cytochrome P450 monoxygenase inhibitor, PBO application
# Tetranychus urticae [8] = experiment: Resistance ratio of LC50 for bifenazate-susceptible Tetranychus urticae LS-VL (two-spotted spider mite) to LC50 for Tetranychus urticae GSS
# Tetranychus urticae [9] = experiment: Synergism ratio of LC50 for adult Tetranychus urticae BEL-1 (two-spotted spider mite) to LC50 for adult Tetranychus urticae BEL-1 in presence of 2000 mg/L cytochrome P450 monoxygenase inhibitor, PBO
# Tetranychus urticae [10] = experiment: Resistance ratio of LC50 for bifenazate-resistant Tetranychus urticae BR-VL (two-spotted spider mite) harboring mitochondrial G126S, S141F and D161G Cytb mutation to LC50 for Tetranychus urticae GSS
# Tetranychus urticae [11] = experiment: Toxicity against adult Tetranychus urticae BEL1 (two-spotted spider mite) in bean leaves assessed as mortality treated 24 hr after 2000 mg/L cytochrome P450 monoxygenase inhibitor, PBO application; settings: BEL-1, 24 h
# Tetranychus urticae [12] = experiment: Toxicity against adult Tetranychus urticae GSS (two-spotted spider mite) in bean leaves assessed as mortality treated 24 hr after 2000 mg/L cytochrome P450 monoxygenase inhibitor, PBO application
# Tetranychus urticae [13] = experiment: Synergism ratio of LC50 for adult Tetranychus urticae GSS (two-spotted spider mite) to LC50 for adult Tetranychus urticae GSS in presence of 2000 mg/L cytochrome P450 monoxygenase inhibitor, PBO
# Tetranychus urticae [14] = experiment: Resistance ratio of LC50 for Tetranychus urticae WI (two-spotted spider mite) to LC50 for Tetranychus urticae GSS
# Tetranychus urticae [15] = experiment: Toxicity against adult Tetranychus urticae BEL1 (two-spotted spider mite) in bean leaves assessed as mortality treated 24 hr after 2000 mg/L esterase inhibitor, DEF application; settings: BEL-1, 24 h
# Tetranychus urticae [16] = experiment: Synergism ratio of LC50 for adult Tetranychus urticae GSS (two-spotted spider mite) to LC50 for adult Tetranychus urticae GSS in presence of 2000 mg/L GST inhibitor, DEM application
# Tetranychus urticae [17] = experiment: Synergism ratio of LC50 for adult Tetranychus urticae BR-VL (two-spotted spider mite) to LC50 for adult Tetranychus urticae BR-VL in presence of 2000 mg/L cytochrome P450 monoxygenase inhibitor, PBO
# Tetranychus urticae [18] = experiment: Toxicity against female adult Tetranychus urticae (two-spotted spider mite) F1 progeny generated from reciprocal cross between female GSS and male BR-VL in compound pretreated bean leaves assesed as mortality
# Tetranychus urticae [19] = experiment: Toxicity against female adult Tetranychus urticae (two-spotted spider mite) F1 progeny generated from reciprocal cross between female BR-VL and male GSS in compound pretreated bean leaves assesed as mortality
# Tetranychus urticae [20] = experiment: Toxicity against adult Tetranychus urticae GSS (two-spotted spider mite) in bean leaves assessed as mortality treated 24 hr after 1000 mg/L esterase inhibitor, DEF application
# Tetranychus urticae [21] = experiment: Synergism ratio of LC50 for adult Tetranychus urticae GSS (two-spotted spider mite) to LC50 for adult Tetranychus urticae GSS in presence of 1000 mg/L esterase inhibitor, DEF application
# Tetranychus urticae [22] = experiment: Resistance ratio of LC50 for Tetranychus urticae HOL3 (two-spotted spider mite) harboring mitochondrial P262T Cytb heteroplasmic mutation to LC50 for Tetranychus urticae GSS
# Tetranychus urticae [23] = experiment: Synergism ratio of LC50 for adult Tetranychus urticae BEL-1 (two-spotted spider mite) to LC50 for adult Tetranychus urticae BEL-1 in presence of 2000 mg/L GST inhibitor, DEM application
# Tetranychus urticae [24] = experiment: Toxicity against adult Tetranychus urticae HOL1 (two-spotted spider mite) harboring mitochondrial G126S and I136T Cytb mutation in compound pretreated bean leaves assessed as mortality
# Tetranychus urticae [25] = experiment: Toxicity against adult METI-resistant Tetranychus urticae MR-VP (two-spotted spider mite) in compound pretreated bean leaves assessed as mortality
# Tetranychus urticae [26] = experiment: Toxicity against adult Tetranychus urticae HOL2 (two-spotted spider mite) harboring mitochondrial G126S Cytb mutation in compound pretreated bean leaves assessed as mortality
# Tetranychus urticae [27] = experiment: Resistance ratio of LC50 for bifenazate-resistant Tetranychus urticae (two-spotted spider mite) BEL1 harboring mitochondrial P262T Cytb fixed mutation to LC50 for Tetranychus urticae GSS
# Tetranychus urticae [28] = experiment: Toxicity against female adult Tetranychus urticae (two-spotted spider mite) F1 progeny generated from reciprocal cross between female BEL1 and male GSS in compound pretreated bean leaves assesed as mortality
# Tetranychus urticae [29] = experiment: Toxicity against adult bifenazate-resistant Tetranychus urticae BR-VL (two-spotted spider mite) harboring mitochondrial G126S, S141F and D161G Cytb mutation in compound pretreated bean leaves assessed as mortality
# Tetranychus urticae [30] = experiment: Toxicity against adult Tetranychus urticae BR-VL (two-spotted spider mite) in bean leaves assessed as mortality treated 24 hr after 2000 mg/L esterase inhibitor, DEF application
# Tetranychus urticae [31] = experiment: Resistance ratio of LC50 for Tetranychus urticae HOL1 (two-spotted spider mite) harboring mitochondrial G126S and I136T Cytb mutation to LC50 for Tetranychus urticae GSS
# Tetranychus urticae [32] = experiment: Resistance ratio of LC50 for Tetranychus urticae HOL2 (two-spotted spider mite) harboring mitochondrial G126S Cytb mutation to LC50 for Tetranychus urticae GSS
# Tetranychus urticae [33] = experiment: Toxicity against adult Tetranychus urticae HOL4 (two-spotted spider mite) harboring mitochondrial G126S Cytb mutation in compound pretreated bean leaves assessed as mortality
# Tetranychus urticae [34] = experiment: Toxicity against adult Tetranychus urticae GSS (two-spotted spider mite) in compound pretreated bean leaves assessed as mortality
# Tetranychus urticae [35] = experiment: Toxicity against adult Tetranychus urticae MR-VL (two-spotted spider mite) in compound pretreated bean leaves assessed as mortality
# Tetranychus urticae [36] = experiment: Toxicity against adult Tetranychus urticae HOL3 (two-spotted spider mite) harboring mitochondrial P262T Cytb heteroplasmic mutation in compound pretreated bean leaves assessed as mortality
# Tetranychus urticae [37] = experiment: Resistance ratio of LC50 for METI-resistant Tetranychus urticae MR-VP (two-spotted spider mite) to LC50 for Tetranychus urticae GSS
# Tetranychus urticae [38] = experiment: Toxicity against adult bifenazate-resistant Tetranychus urticae BEL1 (two-spotted spider mite) harboring mitochondrial P262T Cytb fixed mutation in compound pretreated bean leaves assessed as mortality; settings: BEL-1
# Tetranychus urticae [39] = experiment: Synergism ratio of LC50 for adult Tetranychus urticae BEL-1 (two-spotted spider mite) to LC50 for adult Tetranychus urticae BEL-1 in presence of 2000 mg/L esterase inhibitor, DEF application
# Tetranychus urticae [40] = experiment: Toxicity against female adult Tetranychus urticae (two-spotted spider mite) F1 progeny generated from reciprocal cross between female GSS and male BEL1 in compound pretreated bean leaves assesed as mortality
# Tetranychus urticae [41] = experiment: Toxicity against adult Tetranychus urticae GSS (two-spotted spider mite) in bean leaves assessed as mortality treated 24 hr after 2000 mg/L GST inhibitor, DEM application
# Tetranychus urticae [42] = experiment: Toxicity against adult Tetranychus urticae BEL1 (two-spotted spider mite) in bean leaves assessed as mortality treated 24 hr after 2000 mg/L GST inhibitor, DEM application; settings: BEL-1, 24 h
# Tetranychus urticae [43] = experiment: Toxicity against adult Tetranychus urticae WI (two-spotted spider mite) in compound pretreated bean leaves assessed as mortality
smiles,measurement,setting,value
CCCCCCCCCCCCC1=C(OC(C)=O)C(=O)c2ccccc2C1=O [ACEQUINOCYL],LC50,Tetranychus urticae [1],782 µg/mL
same,RatioLC50,Tetranychus urticae [2],1.4
same,RatioLC50,Tetranychus urticae [3],1.1
same,LC50,Tetranychus urticae [4],10.7 µg/mL
same,RatioLC50,Tetranychus urticae [5],0.9
same,RatioLC50,Tetranychus urticae [6],1.5
same,LC50,Tetranychus urticae [7],209 µg/mL
same,RatioLC50,Tetranychus urticae [8],0.9
same,RatioLC50,Tetranychus urticae [9],6.9
same,RatioLC50,Tetranychus urticae [10],105
same,LC50,Tetranychus urticae [11],79.4 µg/mL
same,LC50,Tetranychus urticae [12],5 µg/mL
same,RatioLC50,Tetranychus urticae [13],2.26
same,RatioLC50,Tetranychus urticae [14],2.3
same,LC50,Tetranychus urticae [15],450 µg/mL
same,RatioLC50,Tetranychus urticae [16],1.4
same,RatioLC50,Tetranychus urticae [17],5.6
same,LC50,Tetranychus urticae [18],22.3 µg/mL
same,LC50,Tetranychus urticae [19],1200 µg/mL
same,LC50,Tetranychus urticae [20],9.9 µg/mL
same,RatioLC50,Tetranychus urticae [21],1.1
same,RatioLC50,Tetranychus urticae [22],11.1
same,RatioLC50,Tetranychus urticae [23],1.1
same,LC50,Tetranychus urticae [24],9.4 µg/mL
same,LC50,Tetranychus urticae [25],30.5 µg/mL
same,LC50,Tetranychus urticae [26],11.2 µg/mL
same,RatioLC50,Tetranychus urticae [27],48.5
same,LC50,Tetranychus urticae [28],535 µg/mL
same,LC50,Tetranychus urticae [29],1180 µg/mL
same,LC50,Tetranychus urticae [30],1060 µg/mL
same,RatioLC50,Tetranychus urticae [31],0.8
same,RatioLC50,Tetranychus urticae [32],1
same,LC50,Tetranychus urticae [33],10.2 µg/mL
same,LC50,Tetranychus urticae [34],11.3 µg/mL
same,LC50,Tetranychus urticae [35],15.8 µg/mL
same,LC50,Tetranychus urticae [36],126 µg/mL
same,RatioLC50,Tetranychus urticae [37],2.7
same,LC50,Tetranychus urticae [38],548 µg/mL
same,RatioLC50,Tetranychus urticae [39],1.2
same,LC50,Tetranychus urticae [40],26.2 µg/mL
same,LC50,Tetranychus urticae [41],8.3 µg/mL
same,LC50,Tetranychus urticae [42],484 µg/mL
same,LC50,Tetranychus urticae [43],26.5 µg/mL
COc1ccc(-c2ccccc2)cc1NNC(=O)OC(C)C [BIFENAZATE],RatioLC50,Tetranychus urticae [2],2.9
same,LC50,Tetranychus urticae [4],1.6 µg/mL
same,RatioLC50,Tetranychus urticae [5],>2780
same,RatioLC50,Tetranychus urticae [8],0.4
same,RatioLC50,Tetranychus urticae [10],>2780
same,RatioLC50,Tetranychus urticae [14],2.4
same,RatioLC50,Tetranychus urticae [22],>2780
same,LC50,Tetranychus urticae [24],> 10000 µg/mL
same,LC50,Tetranychus urticae [25],7.3 µg/mL
same,LC50,Tetranychus urticae [26],43.4 µg/mL
same,RatioLC50,Tetranychus urticae [27],>2780
same,LC50,Tetranychus urticae [29],> 10000 µg/mL
same,RatioLC50,Tetranychus urticae [31],>2780
same,RatioLC50,Tetranychus urticae [32],12.1
same,LC50,Tetranychus urticae [33],> 10000 µg/mL
same,LC50,Tetranychus urticae [34],3.6 µg/mL
same,LC50,Tetranychus urticae [35],10.5 µg/mL
same,LC50,Tetranychus urticae [36],> 10000 µg/mL
same,RatioLC50,Tetranychus urticae [37],2
same,LC50,Tetranychus urticae [38],> 10000 µg/mL
same,LC50,Tetranychus urticae [43],8.7 µg/mL
CO/C=C(/C(=O)OC)c1ccccc1COc1cc(C(F)(F)F)nc(OC(C)C)n1 [FLUACRYPYRIM],LC50,Tetranychus urticae [1],> 10000 µg/mL
same,RatioLC50,Tetranychus urticae [2],4.4
same,LC50,Tetranychus urticae [4],> 10000 µg/mL
same,RatioLC50,Tetranychus urticae [5],>1515
same,LC50,Tetranychus urticae [7],> 10000 µg/mL
same,RatioLC50,Tetranychus urticae [8],>1515
same,RatioLC50,Tetranychus urticae [10],>1515
same,LC50,Tetranychus urticae [11],> 10000 µg/mL
same,LC50,Tetranychus urticae [12],3.8 µg/mL
same,RatioLC50,Tetranychus urticae [13],1.7
same,RatioLC50,Tetranychus urticae [14],0.5
same,LC50,Tetranychus urticae [15],> 10000 µg/mL
same,RatioLC50,Tetranychus urticae [16],0.5
same,LC50,Tetranychus urticae [18],> 10000 µg/mL
same,LC50,Tetranychus urticae [19],> 10000 µg/mL
same,LC50,Tetranychus urticae [20],4.2 µg/mL
same,RatioLC50,Tetranychus urticae [21],1.6
same,RatioLC50,Tetranychus urticae [22],>1515
same,LC50,Tetranychus urticae [24],> 10000 µg/mL
same,LC50,Tetranychus urticae [25],> 10000 µg/mL
same,LC50,Tetranychus urticae [26],> 10000 µg/mL
same,RatioLC50,Tetranychus urticae [27],>1515
same,LC50,Tetranychus urticae [28],> 10000 µg/mL
same,LC50,Tetranychus urticae [29],> 10000 µg/mL
same,LC50,Tetranychus urticae [30],> 10000 µg/mL
same,RatioLC50,Tetranychus urticae [31],>1515
same,RatioLC50,Tetranychus urticae [32],>1515
same,LC50,Tetranychus urticae [33],> 10000 µg/mL
same,LC50,Tetranychus urticae [34],6.6 µg/mL
same,LC50,Tetranychus urticae [35],28.8 µg/mL
same,LC50,Tetranychus urticae [36],> 10000 µg/mL
same,RatioLC50,Tetranychus urticae [37],>1515
same,LC50,Tetranychus urticae [38],> 10000 µg/mL
same,LC50,Tetranychus urticae [40],> 10000 µg/mL
same,LC50,Tetranychus urticae [41],12.4 µg/mL
same,LC50,Tetranychus urticae [42],> 10000 µg/mL
same,LC50,Tetranychus urticae [43],3 µg/mL
